# Measured values as given in patent US5631263A, “Use of delta opioid receptor antagonists to treat immunoregulatory disorders” (Minneapolis Medical Research Foundation, priority 1995, dated 1997).
# pKi: −log10 of the molar value. “Also recorded” adds a separate entry of the source.
# Columns and labels:
# [1] = test system: enkephalin-binding receptor on cells of the immune system; conditions: in words; cited from earlier work
# mu opioid receptors [2] = conditions: 20 mg/kg s.c.; in words; cited from earlier work
# renal allograft = conditions: in words; cited from earlier work
# μ opioid receptor [3] = target: μ opioid receptor (Cavia porcellus, UniProt A0ACM8Q262); assay: antagonism of morphine in the GPI (Example 7); type: cell-based, guinea pig; conditions: morphine as agonist, read-out: Ke, μ (Table VII)
# Method: (§1) 1. Guinea Pig Ileal Longitudinal Muscle (GPI). Ilea from guinea pigs were taken approximately 10 cm from the ileocaecal junction, and a strip of longitudinal muscle with the myenteric plexus attached was prepared by method of Rang et al., Brit. J. Pharmacol., 22, 356 (1964), the disclosure of which is incorporated by reference herein. A 1 cm portion of this strip was then mounted between two platinum electrodes placed in a 10 ml organ bath and connected to an isometric transducer. Contractions were recorded on a polygraph. […] The organ bath was maintained at 36°-37° C. The longitudinal muscle strip was allowed to equilibrate with continuous stimulation for a minimum of 90 min.
# [4] = test system: mixed lymphocyte responses; conditions: cited from earlier work
# kappa opioid receptors = conditions: 20 mg/kg s.c.; in words; cited from earlier work
# mu opioid receptors [5] = conditions: read-out: Ke, M (morphine); GPI, agonist morphine; antagonist 100 or 200 nM, 15 min; cited from earlier work
# [6] = test system: splenic MNC (T and non-T cells); assay: depressed AMLR of splenic cells from mice infected with mCMV; type: cell-based; conditions: for reversal of AMLR suppressed by CMV 10^-4: AMLR suppressed 42%; for reversal of AMLR suppressed by CMV 10^-2: AMLR suppressed 20%
# Method: Mice were injected i.p. with serial 10-fold dilutions of a stock mCMV solution. Dilutions of stock virus ranged from 10^-2 to 10^-6. Mice were sacrificed after 10 days of infection. Control mice were injected with saline.
# Splenic MNC from CMV-infected and uninfected mice were purified by density gradient centrifugation on LSM, as described above for the rat splenic MNC. T and non-T cell fractions were separated by nylon wool columns as disclosed by M. H. Julius et al., Eur. J. Immunol., 3, 645 (1973). The T-enriched cells were used as responder cells. The non-T cells were treated with mitomycin-C to stop their proliferation, as described by K. M. Linner et al., Endocrinol., 128, 717 (1991) and used as stimulator cells. Autologous cell cultures were then set up, with equal numbers (2×10^5) of responder T and stimulator non-T cells being cultured in the 96-well microtiter plates. Cells were cultured for 5 days. To some wells, NTI at 10^-10, 10^-12 or 10^-14 M, concentrations determined to be optimal from the rat AMLR studies, was added for the duration of the culture period. ^3 H-thymidine was added to each well for the last 18 hr of incubation, and the cultures were harvested and counted as described above.
# immune function = conditions: both in vivo and in vitro; cited from earlier work
# [7] = both in vivo and in vitro; cited from earlier work
# [8] = test system: allogeneic murine spleen cells; conditions: cited from earlier work
# [9] = test system: splenic mononuclear cells (MNC); assay: depressed AMLR of splenic MNC from rats infected with rat coronavirus; type: cell-based; conditions: FIG. 2
# Method: Rats were anesthetized with a mixture of 8 mg/ml keta/nine and 2 mg/ml acepromazine (dose=0.1 ml/100 g body weight) and the spleens were removed aseptically. The animals were exsanguinated while under anesthesia. Splenic MNC were released from the surrounding connective tissue by dispersing through a wire mesh. The red blood cells were removed by density gradient centrifugation on ficol-hypaque (Lymphocyte Separation Medium, LSM, Organon Tecknika, Durham, N.C.). The purified MNC were washed in Hanks Balanced Salt Solution containing 1% gelatin and 2 mM EDTA and resuspended in RPMI-1640 medium containing 5% Fetal Bovine Serum (FBS), 100 U/ml penicillin, 100 ug/ml streptomycin and 5×10^-5 M 2-mercaptoethanol. In some experiments, TCM™, a defined medium supplement (CELOX, Minneapolis, Minn.), was used instead of FBS.
# Purified MNC were placed in 96-well round bottom plates at 2×10^5cells/well in a total volume of 0.2 ml and incubated for 5 days at 37° C. […] The cells were then harvested onto glass fiber filter paper and counted in a Beckman (Fullerton, Calif.) scintillation counter. The results are calculated as the mean counts per minute of triplicate wells, and are expressed as percent of control (cpm suppressed AMLR/cpm control AMLR). […]
# delta opioid receptors = conditions: 20 mg/kg s.c.; in words; cited from earlier work
# κ opioid receptor [10] = target: T1, κ opioid receptor (Cavia porcellus, UniProt P41144); assay: antagonism of ethylketazocine in the GPI (Example 7); type: cell-based, guinea pig; conditions: ethylketazocine as agonist, read-out: Ke, κ (Table VII)
# T1 construct: a strip of longitudinal muscle with the myenteric plexus attached was prepared; from tissue; host or cells: guinea pig ileum longitudinal muscle with myenteric plexus
# Method: as §1
# δ opioid receptor = target: T2, δ opioid receptor (Mus musculus, UniProt P32300); assay: antagonism of DADLE on MVD preparations (Example 7); type: cell-based
# T2 construct: Both vasa deferentia were dissected out of mice; from tissue; host or cells: mouse vas deferens (isolated, electrically stimulated)
# Method: 2. Mouse Vas Deferens (MVD). […] The organ bath was maintained at 37° C.
# (§2) Concentration-response curves were obtained in the absence (control) and the presence of the antagonist are expressed as IC50 values. […] Therefore, a high IC50 ratio represents a correspondingly high degree of antagonism at a particular receptor. […] Therefore, a low Ke represents a correspondingly high degree of binding at a particular receptor.
# δ2 receptors = target: T3, δ2 receptors (Cavia porcellus, UniProt A0A286XTF2); assay: binding to guinea pig brain membranes, [3H]DSLET
# T3 construct: guinea pig brain membranes; from tissue; host or cells: guinea pig brain membranes
# Method: (§3) Therefore, a better assessment of the δ subtype selectivity can be obtained from binding of brain membranes and from antagonism studies in mice. The binding of BNTX to guinea pig brain membranes was determined using the general method of L. L. Werling et al., J. Pharmacol. Exp. Ther., 233, 722 (1985), as modified by A. E. Takemori et al., J. Pharmacol. Exp. Ther., 246, 255 (1988). The radio-ligands employed were [^3 H]DPDPE ([D-Pen^2, D-Pen^5 ] enkephalin) for δ1receptors, [^3 H]DSLET([D-Ser^2 -Leus]enkephalin-Thr^6) for δ^2 receptors, [3H]DAMGO for μ receptors and U69593(trans-(±)-3,4-dichloro-N-methyl-N-[2-(lpyrididinyl)cyclohexyl]benzeneacetamide) for κ receptors.
# μ opioid receptor [11] = target: T4, μ opioid receptor (Mus musculus, UniProt P42866); assay: tail flick assay, antagonism of antinociception by μ agonist; type: in vivo, mice; conditions: BNTX 6.25 pmol/i.c.v./mouse
# T4 construct: evaluated in mice using the tail flick assay; from tissue; host or cells: living mice (i.c.v. injection)
# Method: (§4) The antagonist effect of BNTX on antinociceptin was evaluated in mice using the tail flick assay, in accord with the procedure of F. C. Tulunay et al., J. Pharmacol. Exp. Ther., 243, 91 (1987). At least three groups of ten mice were used to generate dose-response curves. A mouse was regarded as positive for antinociception if the latency to flick its tail was more than the control latency plus 3 S.D. of the mean reaction time of the group. The reaction times were determined at the peak time for antinociception after administration of various agonists. Intracerebroventricular (i.c.v.) injections were made in a volume of 5 μl by the method of T. J. Haley et al., Br. J. Pharmacol., 12, 12 (1957).
# (§5) On Table VIII, the potencies are expressed as ED50 ratios, which represent the ED50 of the standard agonist administered subcutaneously in the presence of BNTX (6.25 pmol/i.c.v./mouse), divided by the ED50 of the standard agonist.
# δ1 receptors = target: T5, δ1 receptors (Cavia porcellus, UniProt A0A286XTF2); assay: binding to guinea pig brain membranes, [3H]DPDPE
# T5 construct: guinea pig brain membranes; from tissue; host or cells: guinea pig brain membranes
# Method: as §3
# κ opioid receptor [12] = target: T6, κ opioid receptor (Mus musculus, UniProt P33534); assay: tail flick assay, antagonism of antinociception by U50488H; type: in vivo, mice; conditions: BNTX 6.25 pmol/i.c.v./mouse
# T6 construct: evaluated in mice using the tail flick assay; from tissue; host or cells: living mice (i.c.v. injection)
# Method: as §4, §5
# δ1 opioid receptor = target: T7, δ1 opioid receptor (Mus musculus, UniProt P32300); assay: antagonism of DPDPE in smooth muscle; type: cell-based; conditions: Table VIII, read-out: Smooth Muscle Ke, DPDPE (δ1)
# T7 construct: Both vasa deferentia were dissected out of mice; from tissue; host or cells: smooth muscle preparation, inferred mouse vas deferens
# Text: as §2
# δ2 opioid receptor [13] = target: T8, δ2 opioid receptor (Mus musculus, UniProt P32300); assay: tail flick assay, antagonism of antinociception by DSLET; type: in vivo, mice; design: evaluated in mice using the tail flick assay; from tissue; host or cells: living mice (i.c.v. injection); conditions: BNTX 6.25 pmol/i.c.v./mouse
# Method: as §4, §5
# μ receptors = μ receptors (Cavia porcellus, UniProt A0ACM8Q262); assay: binding to guinea pig brain membranes, [3H]DAMGO
# δ2 opioid receptor [14] = target: T8, δ2 opioid receptor; assay: antagonism of DSLET in smooth muscle; type: cell-based; design: Both vasa deferentia were dissected out of mice; from tissue; host or cells: smooth muscle preparation, inferred mouse vas deferens; conditions: Table VIII, read-out: Smooth Muscle Ke, DSLET (δ2)
# Text: as §2
# T5 sequence (A0A286XTF2 1-366): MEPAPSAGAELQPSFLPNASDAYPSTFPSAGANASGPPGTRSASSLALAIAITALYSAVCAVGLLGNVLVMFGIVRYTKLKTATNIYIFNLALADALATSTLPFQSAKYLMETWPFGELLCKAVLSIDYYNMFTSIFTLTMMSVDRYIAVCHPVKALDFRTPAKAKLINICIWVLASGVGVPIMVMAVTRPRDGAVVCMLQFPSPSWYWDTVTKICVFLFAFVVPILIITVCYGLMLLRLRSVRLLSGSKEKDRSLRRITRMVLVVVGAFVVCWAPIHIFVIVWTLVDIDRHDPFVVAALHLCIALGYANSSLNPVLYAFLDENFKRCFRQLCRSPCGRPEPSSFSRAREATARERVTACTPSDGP
# T8 sequence (P32300 whole entry): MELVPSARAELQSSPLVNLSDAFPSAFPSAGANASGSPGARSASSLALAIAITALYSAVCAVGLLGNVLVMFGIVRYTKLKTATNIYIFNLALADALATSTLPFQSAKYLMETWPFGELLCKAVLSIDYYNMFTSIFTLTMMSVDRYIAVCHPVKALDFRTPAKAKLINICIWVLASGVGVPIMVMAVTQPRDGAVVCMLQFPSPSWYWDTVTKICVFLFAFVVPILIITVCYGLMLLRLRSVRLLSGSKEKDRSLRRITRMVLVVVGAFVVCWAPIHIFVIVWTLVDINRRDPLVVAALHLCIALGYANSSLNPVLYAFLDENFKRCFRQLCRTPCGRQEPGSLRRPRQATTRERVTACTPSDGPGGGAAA
# T2 sequence (P32300 whole entry): as above
# T6 sequence (P33534 whole entry): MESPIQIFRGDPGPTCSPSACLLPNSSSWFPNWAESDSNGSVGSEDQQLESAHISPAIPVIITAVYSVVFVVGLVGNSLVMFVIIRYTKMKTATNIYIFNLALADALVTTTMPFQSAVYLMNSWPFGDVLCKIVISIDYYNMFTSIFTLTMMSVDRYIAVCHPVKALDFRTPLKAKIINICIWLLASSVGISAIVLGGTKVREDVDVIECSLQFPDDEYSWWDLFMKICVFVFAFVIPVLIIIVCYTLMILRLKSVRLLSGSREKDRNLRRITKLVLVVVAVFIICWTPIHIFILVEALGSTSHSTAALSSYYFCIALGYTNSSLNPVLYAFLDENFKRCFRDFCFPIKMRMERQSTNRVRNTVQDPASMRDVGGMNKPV
# T4 sequence (P42866 whole entry): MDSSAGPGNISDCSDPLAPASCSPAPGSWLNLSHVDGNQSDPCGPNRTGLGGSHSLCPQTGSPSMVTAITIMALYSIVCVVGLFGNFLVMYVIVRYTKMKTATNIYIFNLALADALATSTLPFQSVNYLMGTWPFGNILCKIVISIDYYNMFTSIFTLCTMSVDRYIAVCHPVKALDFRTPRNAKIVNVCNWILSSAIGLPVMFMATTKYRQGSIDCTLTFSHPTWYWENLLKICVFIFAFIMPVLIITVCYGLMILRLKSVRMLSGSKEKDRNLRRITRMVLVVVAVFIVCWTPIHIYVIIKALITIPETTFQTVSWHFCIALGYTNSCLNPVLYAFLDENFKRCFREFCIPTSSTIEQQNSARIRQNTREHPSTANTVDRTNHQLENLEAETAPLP
# μ receptors, sequence (A0ACM8Q262 1-400): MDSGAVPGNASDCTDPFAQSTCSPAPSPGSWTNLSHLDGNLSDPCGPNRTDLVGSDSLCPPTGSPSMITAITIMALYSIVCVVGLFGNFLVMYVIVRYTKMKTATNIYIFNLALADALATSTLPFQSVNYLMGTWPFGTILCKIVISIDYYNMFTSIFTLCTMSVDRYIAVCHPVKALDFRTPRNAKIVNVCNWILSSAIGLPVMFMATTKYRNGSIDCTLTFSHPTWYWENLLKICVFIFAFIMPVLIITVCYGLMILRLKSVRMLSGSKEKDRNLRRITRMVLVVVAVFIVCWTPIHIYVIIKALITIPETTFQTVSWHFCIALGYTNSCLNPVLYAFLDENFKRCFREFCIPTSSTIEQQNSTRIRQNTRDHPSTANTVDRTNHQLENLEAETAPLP
# μ opioid receptor (Cavia porcellus, UniProt A0ACM8Q262), sequence (A0ACM8Q262 1-400): as above
# T1 sequence (P41144 whole entry): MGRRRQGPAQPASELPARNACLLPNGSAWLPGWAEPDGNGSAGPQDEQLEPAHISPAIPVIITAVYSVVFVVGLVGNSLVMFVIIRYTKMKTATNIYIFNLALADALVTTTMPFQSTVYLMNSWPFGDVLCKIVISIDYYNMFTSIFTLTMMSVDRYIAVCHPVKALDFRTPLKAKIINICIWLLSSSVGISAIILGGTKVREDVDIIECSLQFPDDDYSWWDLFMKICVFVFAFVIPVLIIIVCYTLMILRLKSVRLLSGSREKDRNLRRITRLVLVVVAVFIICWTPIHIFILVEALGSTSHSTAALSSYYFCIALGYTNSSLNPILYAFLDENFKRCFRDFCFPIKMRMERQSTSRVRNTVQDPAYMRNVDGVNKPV
# T3 sequence (A0A286XTF2 1-366): as the sequence (A0A286XTF2 1-366) above
# T7 sequence (P32300 whole entry): as the sequence (P32300 whole entry) above
compound,measurement,setting,value
C=CCN1CC[C@]23c4c5ccc(O)c4O[C@H]2C(=O)CC[C@@]3(O)[C@H]1C5 [naloxone],block of many of the effects of enkephalins on immune function,[1],blocked
"Oc1ccc2c3c1O[C@H]1c4[nH]c5ccccc5c4C[C@@]4(O)[C@@H](C2)N(CC2CC2)CC[C@]314 [Compound 1, 17-(cyclopropylmethyl)-6,7-dehydro-3,14β-dihydroxy-4,5α-epoxy-6,7-2',3'-indolmorphinan]",antagonism of the effect of morphine,mu opioid receptors [2],without significantly antagonizing
same,allograft survival,renal allograft,prolong allograft survival
same,effectiveness compared with cyclosporine A (CsA),[4]; in both in vitro responses,less effective than cyclosporine A (CsA)
same,allogeneic and xenogeneic mixed lymphocyte responses,"[4]; in vitro, in words",suppress in vitro allogeneic and xenogeneic mixed lymphocyte responses
same,antagonism of the effect of U50488H,kappa opioid receptors,without significantly antagonizing
same,Kb,mu opioid receptors [5],29.4 nM
same,reversal of the suppressed AMLR caused by CMV infection,[6]; FIGS. 4A and 4B,can reverse the suppressed AMLR
same,reversal of AMLR suppressed by CMV 10^-4,[6]; NTI 10^-10 M,partially
same,reversal of AMLR suppressed by CMV 10^-2,[6]; NTI 10^-12 and 10^-10 M,completely reversed
same,reversal of AMLR suppressed by CMV 10^-4,[6]; NTI 10^-14 M-10^-12 M,reversed completely
same,reversal of AMLR suppressed by CMV 10^-2,[6]; NTI 10^-14 M,not by NTI at 10^-14 M
same,immunosuppression,immune function,immunosuppressive
same,toxicity,[7],non-toxic
same,MLR suppression,[8],strongly suppresses the MLR
same,reversal of depressed AMLR,[9],reversed
same,block of writhing inhibition due to DSLET,delta opioid receptors,effectively blocked
"O=C1C(=Cc2ccccc2)C[C@@]2(O)[C@H]3Cc4ccc(O)c5c4[C@@]2(CCN3CC2CC2)[C@H]1O5 [BNTX, 7-Benzylidene-7-dehydronaltrexone]",Kb,κ opioid receptor [10],100 nM
same,Kb,δ opioid receptor,2.9 nM
same,Ke Ratio κ/δ,δ opioid receptor; GPI ethylketazocine / MVD DADLE,35
same,Ke Ratio μ/δ,δ opioid receptor; GPI morphine / MVD DADLE,2.9
same,"Ke ratios compared with NTI and naltrexone, in words",δ opioid receptor; Table VII data,"less than those of the standard δ agonist NTI, but greater than those of naltrexone"
same,receptor selectivity in words,δ opioid receptor; Table VII data,δ-selective antagonist
same,Kb,μ opioid receptor [3],8.3 nM
same,pKi,δ2 receptors,7.97
same,"ED50 Ratio (""Potency Ratio""), DAMGO row",μ opioid receptor [11],0.88
same,shift of the morphine dose-response curve,μ opioid receptor [11]; in words,not shifted significantly
same,δ1 selectivity in words,δ1 receptors; binding,highly selective for δ1 receptor sites; also recorded: first δ1 opioid receptor subset-selective antagonist
same,pKi,δ1 receptors; guinea pig brain membranes,10.00
same,"binding ratio, Ki(δ2)/Ki(δ1)",δ1 receptors; guinea pig brain membranes,about 100
same,"ED50 Ratio (""Potency Ratio""), U50488H",κ opioid receptor [12],1.2
same,shift of the U50488H dose-response curve,κ opioid receptor [12]; in words,not shifted significantly
same,Kb,δ1 opioid receptor,5.2 nM
same,"ED50 Ratio (""Potency Ratio""), DSLET",δ2 opioid receptor [13],0.91
same,shift of the DSLET dose-response curve,δ2 opioid receptor [13]; in words,not shifted significantly
same,pKi,μ receptors,7.88
same,Kb,δ2 opioid receptor [14],2.1 nM
